Measured values taken from patent publication US20260070945A1, “MACROCYCLIC IMMUNOMODULATORS” (Bristol-Myers Squibb Company, priority 2022, published 2026).
*1 amine or outer side, *2 acyl side, *3 side chain or, on linkers, in order; H or OH if unused. Where a SMILES comes first, the peptide text is derived from it. Bridges are numbered along the chain shown (N, C = ends). [ ]: non-standard residue; d: D form. The star is where a group is joined. ξ: configuration not given here. Bip = N[C@@H](Cc1ccc(-c2ccccc2)cc1)C(=O)O; Morpholine(3S-CO) = O=C(O)[C@@H]1COCCN1; Pip(4-aza) = O=C(O)[C@@H]1CNCCN1; 4Pal = N[C@@H](Cc1ccncc1)C(=O)O; X1 = O=C(CN1CCN([*:1])CC1)[*:2]; Cha = N[C@@H](CC1CCCCC1)C(=O)O; Cit = NC(=O)NCCC[C@H](N)C(=O)O; Thr(3ξ) = CC(O)[C@H](N)C(=O)O; 3Abz = Nc1cccc(C(=O)O)c1; Carboxymethyl = O=C(O)C*; NMeA = CN[C@@H](C)C(=O)O; Aun = NCCCCCCCCCCC(=O)O; Dab = NCC[C@H](N)C(=O)O

biological target: T1, PD-1/PD-L1 interaction (PE-labeled human PD-L1-Ig binding to Jurkat cell line over-expressing human PD-1) (Homo sapiens, UniProt Q15116); assay: Jurkat-PD-1 Cell Binding High-Content Screening Assay (CBA); details: Jurkat-hPD-1 cells, PE-labeled PD-L1-Ig 20 nM final; read-out: Jurkat HPD1 PDL1 IC50
T1 construct: expressed in transfected cells; host or cells: Jurkat
In short: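 Jurkat-hPD-1 cells (8×10^3/well) in DMEM with 10% fetal calf serum were preincubated with compound for 2 h at 37 °C. PE-labeled PD-L1-Ig was then added at 20 nM final for 1 h. Cells were fixed in paraformaldehyde with Hoechst 33342, washed and imaged by high-content imaging.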

T1 sequence (Q15116 25-288): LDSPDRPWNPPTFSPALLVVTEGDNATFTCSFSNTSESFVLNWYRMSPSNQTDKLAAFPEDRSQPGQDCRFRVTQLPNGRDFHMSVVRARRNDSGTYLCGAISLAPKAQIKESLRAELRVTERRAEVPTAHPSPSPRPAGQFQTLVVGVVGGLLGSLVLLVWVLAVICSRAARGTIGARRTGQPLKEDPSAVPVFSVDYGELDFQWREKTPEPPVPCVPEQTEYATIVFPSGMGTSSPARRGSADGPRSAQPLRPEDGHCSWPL

IC50 [nM] | Structure (SMILES)
238 | CC(C)C[C@@H]1NC(=O)[C@H](Cc2c[nH]c3ccccc23)NC(=O)[C@H](CC(=O)O)NC(=O)[C@H](Cc2ccncc2)NC(=O)[C@H](Cc2ccc(OCC(=O)O)cc2)NC(=O)CSC[C@@H](C(=O)Nc2cccc(C(=O)NCCCCCCCCCCC(=O)O)c2)NC(=O)[C@H](CCN)NC(=O)[C@H](C(C)C)NC(=O)[C@H](CC2CCCCC2)NC(=O)[C@H](CCN)NC(=O)[C@@H](CC(C)C)NC(=O)[C@H](C)N(C)C(=O)[C@H](C(C)C)NC(=O)[C@H](Cc2ccc(-c3ccccc3)cc2)NC1=O [Example 1217] ({CH2CO}-Y(Carboxymethyl)[4Pal]DWL[Bip]V[NMeA][dL][Dab][Cha]V[Dab]C[3Abz][Aun]-OH; thioether N-14)
202 | CC(C)C[C@@H]1NC(=O)[C@H](Cc2c[nH]c3ccccc23)NC(=O)[C@H](CC(=O)O)NC(=O)[C@H](Cc2ccncc2)NC(=O)[C@H](Cc2ccc(OCC(=O)O)cc2)NC(=O)CSC[C@@H](C(=O)N2CCN(CC(=O)NCCCCCCCCCCC(=O)O)CC2)NC(=O)[C@H](C(C)O)NC(=O)[C@H](C(C)C)NC(=O)[C@H](CC2CCCCC2)NC(=O)[C@H](CCN)NC(=O)[C@@H](CC(C)C)NC(=O)[C@H](C)N(C)C(=O)[C@H](C(C)C)NC(=O)[C@H](Cc2ccc(-c3ccccc3)cc2)NC1=O (stereo partly drawn) [Example 1219] ({CH2CO}-Y(Carboxymethyl)[4Pal]DWL[Bip]V[NMeA][dL][Dab][Cha]V[Thr(3ξ)]C[X1][Aun]-OH; thioether N-14)
182 | CC(C)C[C@@H]1NC(=O)[C@H](Cc2c[nH]c3ccccc23)NC(=O)[C@H](CC(=O)O)NC(=O)[C@H](Cc2ccncc2)NC(=O)[C@H](Cc2ccc(OCC(=O)O)cc2)NC(=O)CSC[C@@H](C(=O)N2CCN(CC(=O)NCCCCCCCCCCC(=O)O)CC2)NC(=O)[C@H](CCCNC(N)=O)NC(=O)[C@H](C(C)C)NC(=O)[C@H](CC2CCCCC2)NC(=O)[C@H](CCN)NC(=O)[C@@H](CC(C)C)NC(=O)[C@H](C)N(C)C(=O)[C@H](C(C)C)NC(=O)[C@H](Cc2ccc(-c3ccccc3)cc2)NC1=O [Example 1220] ({CH2CO}-Y(Carboxymethyl)[4Pal]DWL[Bip]V[NMeA][dL][Dab][Cha]V[Cit]C[X1][Aun]-OH; thioether N-14)
121 | CC(C)C[C@@H]1NC(=O)[C@H](Cc2c[nH]c3ccccc23)NC(=O)[C@H](CC(=O)O)NC(=O)[C@H](Cc2ccncc2)NC(=O)[C@H](Cc2ccc(OCC(=O)O)cc2)NC(=O)CSC[C@@H](C(=O)N2CCNC[C@H]2C(=O)NCCCCCCCCCCC(=O)O)NC(=O)[C@H](C(C)O)NC(=O)[C@H](C(C)C)NC(=O)[C@H](CC2CCCCC2)NC(=O)[C@H](CCN)NC(=O)[C@@H](CC(C)C)NC(=O)[C@H](C)N(C)C(=O)[C@H](C(C)C)NC(=O)[C@H](Cc2ccc(-c3ccccc3)cc2)NC1=O (stereo partly drawn) [Example 1221] ({CH2CO}-Y(Carboxymethyl)[4Pal]DWL[Bip]V[NMeA][dL][Dab][Cha]V[Thr(3ξ)]C[Pip(4-aza)][Aun]-OH; thioether N-14)
591 | CC(C)C[C@@H]1NC(=O)[C@H](Cc2c[nH]c3ccccc23)NC(=O)[C@H](CC(=O)O)NC(=O)[C@H](Cc2ccncc2)NC(=O)[C@H](Cc2ccc(OCC(=O)O)cc2)NC(=O)CSC[C@@H](C(=O)N2CCOC[C@H]2C(=O)NCCCCCCCCCCC(=O)O)NC(=O)[C@H](C(C)O)NC(=O)[C@H](C(C)C)NC(=O)[C@H](CC2CCCCC2)NC(=O)[C@H](CCN)NC(=O)[C@@H](CC(C)C)NC(=O)[C@H](C)N(C)C(=O)[C@H](C(C)C)NC(=O)[C@H](Cc2ccc(-c3ccccc3)cc2)NC1=O (stereo partly drawn) [Example 1222] ({CH2CO}-Y(Carboxymethyl)[4Pal]DWL[Bip]V[NMeA][dL][Dab][Cha]V[Thr(3ξ)]C[Morpholine(3S-CO)][Aun]-OH; thioether N-14)
